US20210198277A1, “AMINE-SUBSTITUTED ARYL OR HETEROARYL COMPOUNDS” (Epizyme, Inc., priority 2016, published 2021)
pIC50: −log10 of the molar value.

Experiments:
[1] = target: T1, EHMT1 (Homo sapiens, UniProt Q9H9B1); experiment: EHMT1 enzyme assay on peptide substrate (EHMT1 PEP); assay type: biochemical; details: Table VII; read-out: EHMT1 PEP IC50
T1 sequence (Q9H9B1 1-1298): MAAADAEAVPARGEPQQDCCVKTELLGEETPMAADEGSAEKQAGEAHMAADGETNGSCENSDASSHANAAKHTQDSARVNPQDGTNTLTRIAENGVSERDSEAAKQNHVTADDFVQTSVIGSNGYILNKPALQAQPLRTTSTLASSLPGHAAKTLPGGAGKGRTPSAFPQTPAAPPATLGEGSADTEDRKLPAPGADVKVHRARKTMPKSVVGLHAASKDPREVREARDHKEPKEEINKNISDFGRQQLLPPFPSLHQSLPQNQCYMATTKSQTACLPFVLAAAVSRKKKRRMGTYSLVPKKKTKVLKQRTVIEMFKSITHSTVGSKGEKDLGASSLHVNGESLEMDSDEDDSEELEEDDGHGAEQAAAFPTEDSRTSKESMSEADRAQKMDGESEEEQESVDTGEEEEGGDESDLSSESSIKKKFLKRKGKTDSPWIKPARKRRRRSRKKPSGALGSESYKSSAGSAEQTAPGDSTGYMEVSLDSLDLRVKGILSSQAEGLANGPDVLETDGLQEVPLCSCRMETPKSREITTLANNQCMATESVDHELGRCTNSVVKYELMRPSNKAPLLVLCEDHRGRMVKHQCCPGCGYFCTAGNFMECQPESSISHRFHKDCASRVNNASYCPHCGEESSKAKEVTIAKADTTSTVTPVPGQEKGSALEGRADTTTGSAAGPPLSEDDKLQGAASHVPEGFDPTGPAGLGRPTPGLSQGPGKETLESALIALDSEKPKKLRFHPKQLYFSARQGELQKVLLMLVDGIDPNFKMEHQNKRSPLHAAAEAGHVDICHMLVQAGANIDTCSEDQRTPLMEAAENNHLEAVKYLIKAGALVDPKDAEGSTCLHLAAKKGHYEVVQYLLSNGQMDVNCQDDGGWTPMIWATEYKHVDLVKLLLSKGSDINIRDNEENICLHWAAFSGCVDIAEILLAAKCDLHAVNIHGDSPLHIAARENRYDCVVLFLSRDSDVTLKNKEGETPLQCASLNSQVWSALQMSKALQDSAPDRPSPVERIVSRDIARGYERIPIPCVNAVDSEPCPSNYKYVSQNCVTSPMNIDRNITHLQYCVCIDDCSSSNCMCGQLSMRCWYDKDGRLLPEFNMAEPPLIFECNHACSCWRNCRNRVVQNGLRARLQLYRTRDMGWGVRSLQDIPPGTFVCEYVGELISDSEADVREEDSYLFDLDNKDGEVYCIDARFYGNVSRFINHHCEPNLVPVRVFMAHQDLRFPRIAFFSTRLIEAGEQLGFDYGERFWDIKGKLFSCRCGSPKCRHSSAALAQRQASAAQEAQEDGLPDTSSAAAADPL

[2] = target: T2, human EHMT2 913-1193 (Homo sapiens, UniProt Q96KQ7); experiment: EHMT2 enzyme assay on histone peptide substrate (EHMT2 PEP); assay type: biochemical; details: Table VII; read-out: EHMT2 PEP IC50
T2 construct: recombinant purified human EHMT2 913-1193, Viva; purchased Viva
T2 sequence (Q96KQ7 913-1193): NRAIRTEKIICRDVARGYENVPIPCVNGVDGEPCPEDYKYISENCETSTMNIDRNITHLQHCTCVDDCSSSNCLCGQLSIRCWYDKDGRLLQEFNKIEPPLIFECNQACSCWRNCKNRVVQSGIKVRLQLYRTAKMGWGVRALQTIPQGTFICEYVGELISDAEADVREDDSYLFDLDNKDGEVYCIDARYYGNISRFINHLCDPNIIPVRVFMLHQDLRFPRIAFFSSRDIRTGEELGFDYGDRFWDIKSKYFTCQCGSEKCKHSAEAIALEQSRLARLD
In short: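 Inhibition is measured as reduced tritium incorporation into a biotinylated histone peptide from ^3H-SAM. The enzyme (0.031 nM) sees compound for 30 minutes before a 60-minute room-temperature reaction, which unlabeled SAM quenches prior to streptavidin Flashplate capture.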

Row | SMILES | pIC50 [1] | pIC50 [2]
1 | CNc1cc(C)nc(Nc2ccc(OC)c(CNCCN3CCC3)c2)n1 [Compound 1081] | > 7.00 | > 7.00
2 | CNc1ccnc(Nc2ccc(OC)c(OC[C@H](CN3CCCC3)OC)c2)n1 [Compound 1082] | 5.00 to 6.00 | 5.00 to 6.00
3 | CNc1ccnc(Nc2ccc(OC)c(OC[C@@H](CN3CCCC3)OC)c2)n1 [Compound 1083] | 6.00 to 7.00 | 6.00 to 7.00
4 | CNC[C@@H](COc1cc(Nc2nccc(NC)n2)ccc1OC)OC [Compound 1084] | < 5.00 | < 5.00
5 | CNc1ccnc(Nc2ccc(OC)c(OCC(C)CN3CCC3)c2)n1 (stereo not drawn) [Compound 1085] | > 7.00 | 6.00 to 7.00
6 | CNCC(C)COc1cc(Nc2nccc(NC)n2)ccc1OC (stereo not drawn) [Compound 1086] | 5.00 to 6.00 | 5.00 to 6.00
7 | CNc1ccnc(Nc2ccc(OC)c(OCC[C@@H]3CCCN3)c2)n1 [Compound 1087] | 6.00 to 7.00 | 5.00 to 6.00
8 | CNc1cc(C)c2cc(OC)c(OC[C@H](C)CN3CCC3)cc2n1 [Compound 1088] | > 7.00 | > 7.00
9 | CNc1cc(C)nc(Nc2cnc(OC)c(OC[C@H](O)CN3CCC3)c2)n1 [Compound 1089] | > 7.00 | 6.00 to 7.00
10 | CNCC(C)NCc1cc(Nc2nc(C)cc(NC)n2)ccc1OC (stereo not drawn) [Compound 1090] | 6.00 to 7.00 | 6.00 to 7.00
11 | CNc1cc(C2CCOCC2)c2cc(OC)c(OCCCN3CC(O)C3)cc2n1 [Compound 1091] | > 7.00 | 6.00 to 7.00
12 | CNc1ccnc(Nc2ccc(OC)c(OC[C@@H](C)CN3CCC3)c2)n1 [Compound 1092] | 5.00 to 6.00 | 5.00 to 6.00
13 | CNc1ccnc(Nc2ccc(OC)c(OC[C@H](O)CN3CCC3)c2)n1 [Compound 1093] | > 7.00 | 6.00 to 7.00
14 | CNc1cc(C)nc(Nc2ccc(OC)c(CNCCN3CC[C@@H](F)C3)c2)n1 [Compound 1094] | > 7.00 | 6.00 to 7.00
15 | CNCCNC(C)c1cc(Nc2nc(C)cc(NC)n2)ccc1OC (stereo not drawn) [Compound 1095] | 6.00 to 7.00 | 6.00 to 7.00
16 | CCN1CCC(O)(COc2cc(Nc3nccc(NC)n3)ccc2OC)C1 (stereo not drawn) [Compound 1096] | < 5.00 | < 5.00
17 | CNc1ccnc(Nc2ccc(OC)c(OCC3(O)CCN(C)C3)c2)n1 (stereo not drawn) [Compound 1097] | 5.00 to 6.00 | < 5.00
18 | CNc1ccnc(Nc2cnc(OC)c(OC[C@@H]3CCN(C4CCC4)C3)c2)n1 [Compound 1098] | > 7.00 | > 7.00
19 | CNc1cc(C)nc(Nc2ccc(OC)c(OC[C@H](O)CN3CC(C)C3)c2)n1 [Compound 1099] | > 7.00 | 6.00 to 7.00
20 | CNc1cc(C)nc(Nc2ccc(OC)c(OC[C@H](O)CN3CC(C)C3)c2)n1 [Compound 1100] | 6.00 to 7.00 | 6.00 to 7.00
21 | CNc1cc(C)nc(Nc2ccc(OC)c(CNCCN(C)C)c2)n1 [Compound 1101] | > 7.00 | > 7.00
22 | CNC[C@H](C)NCc1cc(Nc2nc(C)cc(NC)n2)ccc1OC [Compound 1102] | > 7.00 | > 7.00
23 | CNC[C@@H](C)NCc1cc(Nc2nc(C)cc(NC)n2)ccc1OC [Compound 1103] | 5.00 to 6.00 | 5.00 to 6.00
24 | CNc1cc(C)nc(Nc2ccc(OC)c(COCCN3CCCC3)c2)n1 [Compound 1104] | > 7.00 | > 7.00
25 | CNc1cc(C)nc(Nc2ccc(OC)c(COCCN(C)C)c2)n1 [Compound 1105] | 6.00 to 7.00 | 6.00 to 7.00
26 | CCNc1cc(C)nc(Nc2ccc(OC)c(OC[C@H](O)CN3CCCC3)c2)n1 [Compound 1106] | > 7.00 | > 7.00
27 | CNc1cc(C2CCOCC2)c2cc(OC)c(OC[C@H](O)CN3CCCC3)cc2n1 [Compound 1107] | > 7.00 | > 7.00
